One series is described as follows: Solubility in water. The format is physicochemical.
Series [1] in a line: Water absorption when exposed to high relative humidity. The format is physicochemical.
For series [2] the following is noted: judged from DSC and solubility data; as shown in WO 2007/144005; cited from earlier work.

Counter-ions that a name gives are not always drawn.

What is called solubility is the concentration that dissolves in the medium under given conditions. Lower therefore signals little dissolved substance.

As for `Cc1ccc(Sc2ccccc2N2CCNCC2)c(C)c1` [beta form of the hydrobromide, 1-[2-(2,4-dimethylphenylsulfanyl)phenyl]piperazine-HBr], the solubility in the series “Solubility in water” was determined as 1200 µg/mL. Besides, in series [1], the “absorption of water when exposed to high relative humidity” value is “about 0.6%”. The “stability among the α-, β- and γ-forms of the HBr salt” value in series [2] is given as “most stable form”.

Values taken from patent US8598348B2, “Purification of 1-[2-(2,4-dimethylphenylsulfanyl)phenyl]piperazine” (H. Lundbeck A/S, priority 2009, dated 2013).
